What all share (test): MIC, standard broth dilution method in microtitre
What all share (type): cell-based
A general note: In broth dilution the organism is exposed to a series of concentrations in liquid medium.

The test system of one test is Moraxella catarrhalis. The procedure:
(§1) Using a standard broth dilution method in microtitre, compounds were tested for antibacterial activity.
(§2) The MIC (μg/ml) of test compounds against various organisms was determined including: Staphylococcus aureus, Streptococcus pneumoniae, Streptococcus pyogenes, Enterococcus faecalis, Haemophylus influenzae, Moraxella catarrhalis.

A further test has as its system Haemophylus influenzae. The protocol: as §1, §2
Test [1] has as its system sensitive Staphylococcus aureus. The protocol:
as §1, §2

For another test, the system named is Enterococcus faecalis. The protocol:
as §1, §2

Take `CC[C@H]1OC(=O)[C@H](C)[C@@H](O[C@H]2C[C@@](C)(OC)[C@H](NC(=O)CCOCCOCCCc3ccc4c(c3)c(=O)c(C(=O)O)cn4CC)[C@H](C)O2)[C@H](C)[C@@H](O[C@@H]2O[C@H](C)C[C@H](N(C)C)[C@H]2O)[C@](C)(O)C[C@@H](C)CN(C)[C@H](C)[C@@H](O)[C@]1(C)O` (single isomer, unassigned) [Example 4]: the MIC against Moraxella catarrhalis is ≤ 2 µg/mL.
As to “4″(S)—N-(3-{2-[2-(3-Carboxy-7-chloro-1-cyclopropyl-4-oxo-1,4-dihydro-quinolin-6-ylamino)-ethoxy]-ethoxy}-propionyl}-azithromycin [Example 3]”, the MIC in the test with Haemophylus influenzae is ≤ 0.125 µg/mL.
In the case of `CC[C@H]1OC(=O)[C@H](C)[C@@H](O[C@H]2C[C@@](C)(OC)[C@H](NC(=O)CCOCCOCCCc3ccc4c(c3)c(=O)c(C(=O)O)cn4C3CC3)[C@H](C)O2)[C@H](C)[C@@H](O[C@@H]2O[C@H](C)C[C@H](N(C)C)[C@H]2O)[C@](C)(O)C[C@@H](C)CN(C)[C@H](C)[C@@H](O)[C@]1(C)O` (single isomer, unassigned) [Example 9], the MIC in the test with Moraxella catarrhalis is ≤ 2 µg/mL; in test [1], ≤ 0.5 µg/mL.
With `CC[C@H]1OC(=O)[C@H](C)[C@@H](O[C@H]2C[C@@](C)(OC)[C@@H](NC(=O)CCOCCOCCCc3ccc4c(c3)c(=O)c(C(=O)O)cn4CC)[C@H](C)O2)[C@H](C)[C@@H](O[C@@H]2O[C@H](C)C[C@H](N(C)C)[C@H]2O)[C@](C)(O)C[C@@H](C)CN(C)[C@H](C)[C@@H](O)[C@]1(C)O` (single isomer, unassigned) [Example 7], the results for the MIC (in the test on Moraxella catarrhalis; in the test on Enterococcus faecalis; in test [1]) were ≤ 2 µg/mL, ≤ 0.125 µg/mL and ≤ 0.5 µg/mL, respectively.
As to `CC[C@H]1OC(=O)[C@H](C)[C@@H](O[C@H]2C[C@@](C)(OC)[C@@H](NC(=O)CCOCCOCCCc3ccc4c(c3)c(=O)c(C(=O)O)cn4C3CC3)[C@H](C)O2)[C@H](C)[C@@H](O[C@@H]2O[C@H](C)C[C@H](N(C)C)[C@H]2O)[C@](C)(O)C[C@@H](C)CN(C)[C@H](C)[C@@H](O)[C@]1(C)O` (single isomer, unassigned) [Example 8], the MIC in the test on Moraxella catarrhalis is ≤ 2 µg/mL; against Enterococcus faecalis, ≤ 0.125 µg/mL; in test [1], ≤ 0.5 µg/mL.
Turning to `CC[C@H]1OC(=O)[C@H](C)[C@@H](O[C@H]2C[C@@](C)(OC)[C@H](NC(=O)CCOCCOCCCc3ccc4c(c3)c(=O)c(C(=O)O)cn4CCOC)[C@H](C)O2)[C@H](C)[C@@H](O[C@@H]2O[C@H](C)C[C@H](N(C)C)[C@H]2O)[C@](C)(O)C[C@@H](C)CN(C)[C@H](C)[C@@H](O)[C@]1(C)O` (single isomer, unassigned) [Example 6], the MIC against Moraxella catarrhalis was ≤ 2 µg/mL; in test [1], ≤ 0.5 µg/mL.

(Values after patent US20080312167A1, “4'' Amino Linked Macrolides Useful for the Treatment of Microbial Infections” (priority 2005, published 2008).)
